Test results published in article PMC8583417, “Evaluation of the Antimicrobial Efficacy of N-Acetyl-L-Cysteine, Rhamnolipids, and Usnic Acid—Novel Approaches to Fight Food-Borne Pathogens” (International Journal of Molecular Sciences, 2021).
Converted amounts (≈) assume the structure as drawn.

Columns and labels:
S. Infantis S13 = assay: MIC for reduction of preformed biofilm (crystal violet staining); assay type: cell-based, Salmonella enterica Infantis; details: for MICBR80: ≥80% reduction of preformed biofilm (18 h), 20 h with substance
Protocol: (§1) Ten concentrations of NAC, RLs, and UA were tested to determine the minimum inhibitory concentration for planktonic growth, and subsequently, the six highest concentrations were applied on preformed biofilms to evaluate the biofilm eradication ability of the compounds. MIC was defined as the lowest substance concentration able to inhibit at least 80% of microbial growth (MICPC80 for planktonic cells, MICBC80 for further growth of biofilm cells), inhibit 80% of metabolic activity (MICBM80 for biofilm metabolic activity, MICMPB80 for metabolic activity of preformed biofilm), prevent biofilm formation by at least 80% (MICBF80 for biofilm formation), or reduce a preformed biofilm by at least 80% (MICBR80 for biofilm reduction). The results of MICs are summarized in Table 1 (planktonic cells) and Table 2 (biofilm-associated cells).
(§2) The determination of MICs was performed according to Chlumsky et al.. Briefly, 96-well flat-bottomed microtiter plates were inoculated with 75 µL (for biofilm formation) or 100 µL (for preformed biofilm) of bacterial suspension (A625nm 0.08 to 0.1) in technical triplicates and were then carefully mixed with the dilution series of the test substances (24 h cultivation at 25 °C for S. Infantis, 37 °C for other strains) or were directly cultivated to preform biofilms (18 h). For a positive control of bacterial growth, the inoculum was mixed with a pure sterile medium. Furthermore, the sterile medium was included in the plate as a marker of potential microbial contamination. To evaluate planktonic cells growth (MICPC80) and further growth of biofilm cells (MICBC80), the optical density of the content of the microtiter plates was measured spectrophotometrically at 625 nm before and after 24 h (for biofilm formation) of cultivation or before and after additional 20 h incubation with the tested compound (for preformed biofilm). The difference of A625nm was considered as a measure of the ability of cells to grow in the presence of the tested substances. To evaluate the inhibition of biofilm formation (MICBF80) and reduction in preformed biofilms (MICBR80), biomass was quantified using crystal violet staining, and its metabolic activity (MICBM80 and MICMPB80) was estimated by using the MTT (thiazyl tetrazolium bromide, Sigma-Aldrich, USA) reduction assay, both measured spectrophotometrically at 595 nm.
(§3) All inhibitions were calculated using the formula of Chlumsky et al. below (Equation (1)):(1) A625(595)nm inhibition (%)=A625(595)nm (control) – A625(595)nm(natural substance)/A625(595)nm (control)× 100 where A625(595)nm (control) is the absorbance of bacterial suspension/biofilm itself, and A625(595)nm(natural substance) is the absorbance of the bacterial suspension/biofilm with the added natural substance (NAC, RLs, and UA).
(§4) When the minimum inhibitory concentration could not be determined, the MIC was established as >the highest tested concentration for NAC, RLs, and UA.

S. Infantis S59 = assay: as above; assay type: cell-based, Salmonella enterica Infantis; details: for MICBR80: ≥80% reduction of preformed biofilm (18 h), 20 h with substance
Protocol: as §1, §2, §3, §4

Gram-negative bacteria [1] = assay: Inhibition of planktonic growth, summary over strains; assay type: cell-based; details: at maximal tested concentration (RLs 1000 µg/mL, UA 31.3 µg/mL)
Protocol: as §2, with “The difference of A625nm was considered as a measure of the ability of cells to grow in the presence of the tested substances.” left out, “nm. […]” for “nm.”

Gram-negative bacteria [2] = assay: Inhibition of biofilm formation, summary over strains; assay type: cell-based; details: maximal tested concentration 31.3 µg/mL
Protocol: as §2, with “The difference of A625nm was considered as a measure of the ability of cells to grow in the presence of the tested substances.” left out, “nm. […]” for “nm.”

Gram-negative bacteria [3] = assay: Inhibition of biofilm metabolic activity, summary over strains; assay type: cell-based; details: maximal tested concentration 31.3 µg/mL
Protocol: as §2, with “The difference of A625nm was considered as a measure of the ability of cells to grow in the presence of the tested substances.” left out, “nm. […]” for “nm.”

[4] = tested on: preformed biofilms of Gram-negative bacteria; assay: Inhibition of further growth of biofilm cells, summary over strains; assay type: cell-based
Protocol: as §2, with “The difference of A625nm was considered as a measure of the ability of cells to grow in the presence of the tested substances.” left out, “nm. […]” for “nm.”

[5] = tested on: preformed biofilms of Gram-negative bacteria; assay: Inhibition of metabolic activity of preformed biofilm, summary over strains; assay type: cell-based
Protocol: as §2, with “The difference of A625nm was considered as a measure of the ability of cells to grow in the presence of the tested substances.” left out, “nm. […]” for “nm.”

Gram-negative bacteria [6] = assay: Reduction of preformed biofilm, summary over strains; assay type: cell-based
Protocol: as §2, with “The difference of A625nm was considered as a measure of the ability of cells to grow in the presence of the tested substances.” left out, “nm. […]” for “nm.”

Gram-positive bacteria = assay: as above; assay type: cell-based; details: Gram-positive strains other than L. monocytogenes 164
Protocol: as §2, with “The difference of A625nm was considered as a measure of the ability of cells to grow in the presence of the tested substances.” left out, “nm. […]” for “nm.”

S. aureus 1945^GFPuvr = tested on: S. aureus 1945^GFPuvr; parameters: method as in PMID 30151647; details: cited from earlier work
S. aureus 816 = assay: MIC for further growth of biofilm cells, preformed biofilm (A625nm); assay type: cell-based, Staphylococcus aureus; details: ≥80% inhibition, 18 h preformed biofilm, 20 h with substance
Protocol: as §1
The determination of MICs was performed according to Chlumsky et al.. […] To evaluate planktonic cells growth (MICPC80) and further growth of biofilm cells (MICBC80), the optical density of the content of the microtiter plates was measured spectrophotometrically at 625 nm before and after 24 h (for biofilm formation) of cultivation or before and after additional 20 h incubation with the tested compound (for preformed biofilm). […] To evaluate the inhibition of biofilm formation (MICBF80) and reduction in preformed biofilms (MICBR80), biomass was quantified using crystal violet staining, and its metabolic activity (MICBM80 and MICMPB80) was estimated by using the MTT (thiazyl tetrazolium bromide, Sigma-Aldrich, USA) reduction assay, both measured spectrophotometrically at 595 nm.
as §3, with “UA). […]” for “UA).”

[7] = tested on: tested food-borne pathogens; assay: MIC for bacterial growth, summary over all tested strains; assay type: cell-based; details: this study
Protocol: as §2, with “The difference of A625nm was considered as a measure of the ability of cells to grow in the presence of the tested substances.” left out, “nm. […]” for “nm.”

[8] = tested on: Haemophilus influenza, Pseudomonas aeruginosa, and Streptococcus pneumoniae; parameters: method as in PMID 29234086, PMID 31022884, PMID 27492531; details: clinical pathogens; cited from earlier work
[9] = tested on: Haemophilus influenza, Pseudomonas aeruginosa, and Streptococcus pneumoniae; parameters: method as in PMID 29234086, PMID 31022884, PMID 27492531; details: clinical pathogens; cited from earlier work; remark: listed apart in the source
[10] = preformed biofilm, within tested concentrations

SMILES	maximal achieved inhibition (MICBR80 not reached), biofilm reduction (S. Infantis S13; [10]) [%]	MICBR80 (S. Infantis S13)	maximal achieved inhibition (MICBR80 not reached), biofilm reduction (S. Infantis S59; [10]) [%]	MICBR80 (S. Infantis S59)	maximum inhibition of planktonic growth (MICPC80), range over strains (Gram-negative bacteria [1])	maximum inhibition (MICBF80), range over strains (Gram-negative bacteria [2])	maximum inhibition (MICBM80), range over strains (Gram-negative bacteria [3])	maximum observed inhibition of further growth of biofilm cells [4]	maximum observed inhibition of metabolic activity of preformed biofilm [5]	maximum observed reduction of preformed biofilm (Gram-negative bacteria [6])	maximum observed reduction of preformed biofilm, range over strains (Gram-positive bacteria)	minimal inhibition concentration, bacterial growth (S. aureus 1945^GFPuvr) [µg/mL]	MICBC80 (S. aureus 816) [µg/mL]	MIC for bacterial growth, range over strains [7]	MIC against bacterial growth [8] [µg/mL]	MIC needed for biofilm reduction [9]
CC(=O)c1c(O)c(C)c(O)c2c1OC1=CC(=O)C(C(C)=O)C(=O)C12C (single isomer, unassigned; (+)) [UA, (+)-usnic acid]	30	> 31.3 µg/mL	21	> 31.3 µg/mL	20–42%	10–47%	16–47%	up to 61%	up to 53%	up to 30%	35–72%	32 (≈ 92.9 µM)				
CC(=O)N[C@@H](CS)C(=O)O [NAC, N-Acetyl-L-cysteine]		12,500 µg/mL		100,000 µg/mL									3130	3130–12,500 µg/mL	500 to 2500	2500–10,000 µg/mL
